Source: patent US8603975B2, “Cyclic peptide compounds” (priority 2007, dated 2013)
*1 amine or outer side, *2 acyl side, *3 side chain or, on linkers, in order; H or OH if unused. Where a SMILES comes first, the peptide text is derived from it. [ ]: non-standard residue; d: D form. The star is where a group is joined. X1 = C[C@H](COC(=O)N(C)c1ccccn1)C[C@@H](C(=O)[*:2])N(C)[*:1]; X2 = COCCN(CCOC)C(=O)OC[C@@H](C)C[C@@H](C(=O)[*:2])N(C)[*:1]; X4 = C[C@H](COC(=O)N(C)c1cccnc1)C[C@@H](C(=O)[*:2])N(C)[*:1]; X3 = C[C@H](COC(=O)N1CCN(C)CC1)C[C@@H](C(=O)[*:2])N(C)[*:1]; X6 = C[C@H](COC(=O)N1CCOCC1)C[C@@H](C(=O)[*:2])N(C)[*:1]; NMe(dihydroBmt) = CCCC[C@@H](C)[C@@H](O)[C@H](NC)C(=O)O; X7 = C[C@H](COC(=O)[*:3])C[C@@H](C(=O)[*:2])N(C)[*:1]; MeBmt = C/C=C/C[C@@H](C)[C@@H](O)[C@H](NC)C(=O)O; NMeL = CN[C@@H](CC(C)C)C(=O)O; X8 = CN(c1cnn(CCN2CCOCC2)c1)*; NMeV = CN[C@H](C(=O)O)C(C)C; Sar = CNCC(=O)O

Molecular target: HCV replicon
Type: cell-based, hepatitis C virus
Details: HCV replicon cells, D-MEM with 5% fetal bovine serum, luciferase activity after two more days of cultivation, 50% enzyme activity level to control (DMSO only)
Experimental: It is thought that the replication mechanism of the subgenomic HCV RNA in these cell lines is extremely similar to the replication of full length HCV RNA genome in hepatic cells infected with HCV.
The inhibitory activity of the test compounds against the replication of HCV replicon was evaluated by quantifying the activity of luciferase, a reporter gene product encoded in the replicon system reported by Yokota et al., EMBO J 4: 602-608 (2003). The enzyme assay was carried out according to the technical manual of the Steady-Glo(trade mark) luciferase assay system (Promega). The replicon assay was carried out with the modified method reported by Lohmann et al., Science 285: 110 (1999). The details are described in the following.
6×10^3 HCV replicon cells in D-MEM medium containing 5% fetal bovine serum were seeded in each well of a 96-well microtiter plate (Corning Inc.). After the cells were incubated at 37° C. for 16 hours in 5% CO2, the test compound was added.
After cultivation for two more days, the culture medium was removed and 25 μl of Glo Lysis buffer was added to each well and incubated for 5 minutes. Allowing lysis to occur, 25 μl of Steady-Glo(trade mark) assay reagent was added to each well. After incubation for 5 minutes, the luminescence was measured with a luminometer, Mithras LB940 (BERTHOLD TECHNOLOGIES GmbH & Co.KG) following the manufacturer's instructions.
The luciferase activities in replicon cells treated at each concentrations of the compound were employed for the calculation of EC50 value of the each compound, which gave the compound concentration indicating 50% enzyme activity level to the control (no drug group, containing only DMSO).

Structure (SMILES)	HCV replicon replication inhibitory activity: EC50 [µg/mL]
C/C=C/C[C@@H](C)[C@@H](O)[C@H]1C(=O)N[C@@H]([C@@H](C)O)C(=O)N(C)CC(=O)N(C)[C@@H](CC(C)C)C(=O)N[C@@H](CC(C)C)C(=O)N(C)[C@@H](CC(C)C)C(=O)N[C@@H](C)C(=O)N[C@H](C)C(=O)N(C)[C@@H](C[C@H](C)COC(=O)N2CCOCC2)C(=O)N[C@@H](CC(C)C)C(=O)N(C)[C@@H](C(C)C)C(=O)N1C [Ex 1] (cyclo([MeBmt]T[Sar][NMeL]L[NMeL]A[dA][X6]L[NMeV]))	0.15
C/C=C/C[C@@H](C)[C@@H](O)[C@H]1C(=O)N[C@@H]([C@@H](C)O)C(=O)N(C)CC(=O)N(C)[C@@H](CC(C)C)C(=O)N[C@@H](CC(C)C)C(=O)N(C)[C@@H](CC(C)C)C(=O)N[C@@H](C)C(=O)N[C@H](C)C(=O)N(C)[C@@H](C[C@H](C)COC(=O)N2CCN(C)CC2)C(=O)N[C@@H](CC(C)C)C(=O)N(C)[C@@H](C(C)C)C(=O)N1C [Ex 8] (cyclo([MeBmt]T[Sar][NMeL]L[NMeL]A[dA][X3]L[NMeV]))	0.16
C/C=C/C[C@@H](C)[C@@H](O)[C@H]1C(=O)N[C@@H]([C@@H](C)O)C(=O)N(C)CC(=O)N(C)[C@@H](CC(C)C)C(=O)N[C@@H](CC(C)C)C(=O)N(C)[C@@H](CC(C)C)C(=O)N[C@@H](C)C(=O)N[C@H](C)C(=O)N(C)[C@@H](C[C@H](C)COC(=O)N(CCOC)CCOC)C(=O)N[C@@H](CC(C)C)C(=O)N(C)[C@@H](C(C)C)C(=O)N1C [Ex 10] (cyclo([MeBmt]T[Sar][NMeL]L[NMeL]A[dA][X2]L[NMeV]))	0.18
C/C=C/C[C@@H](C)[C@@H](O)[C@H]1C(=O)N[C@@H]([C@@H](C)O)C(=O)N(C)CC(=O)N(C)[C@@H](CC(C)C)C(=O)N[C@@H](CC(C)C)C(=O)N(C)[C@@H](CC(C)C)C(=O)N[C@@H](C)C(=O)N[C@H](C)C(=O)N(C)[C@@H](C[C@H](C)COC(=O)N(C)c2cnn(CCN3CCOCC3)c2)C(=O)N[C@@H](CC(C)C)C(=O)N(C)[C@@H](C(C)C)C(=O)N1C [Ex 36] (cyclo([MeBmt]T[Sar][NMeL]L[NMeL]A[dA][X7](X8)L[NMeV]))	0.09
C/C=C/C[C@@H](C)[C@@H](O)[C@H]1C(=O)N[C@@H]([C@@H](C)O)C(=O)N(C)CC(=O)N(C)[C@@H](CC(C)C)C(=O)N[C@@H](CC(C)C)C(=O)N(C)[C@@H](CC(C)C)C(=O)N[C@@H](C)C(=O)N[C@H](C)C(=O)N(C)[C@@H](C[C@H](C)COC(=O)N(C)c2cccnc2)C(=O)N[C@@H](CC(C)C)C(=O)N(C)[C@@H](C(C)C)C(=O)N1C [Ex 39] (cyclo([MeBmt]T[Sar][NMeL]L[NMeL]A[dA][X4]L[NMeV]))	0.12
C/C=C/C[C@@H](C)[C@@H](O)[C@H]1C(=O)N[C@@H]([C@@H](C)O)C(=O)N(C)[C@H](COC)C(=O)N(C)[C@@H](CC(C)C)C(=O)N[C@@H](CC(C)C)C(=O)N(C)[C@@H](CC(C)C)C(=O)N[C@@H](C)C(=O)N[C@H](C)C(=O)N(C)[C@@H](C[C@H](C)COC(=O)N(C)CCOC)C(=O)N[C@@H](CC(C)C)C(=O)N(C)[C@@H](C(C)C)C(=O)N1C [Ex 84]	0.053
C/C=C/C[C@@H](C)[C@@H](O)[C@H]1C(=O)N[C@@H]([C@@H](C)O)C(=O)N(C)[C@H](C)C(=O)N(C)[C@@H](CC(C)C)C(=O)N[C@@H](CC(C)C)C(=O)N(C)[C@@H](CC(C)C)C(=O)N[C@@H](C)C(=O)N[C@H](C)C(=O)N(C)[C@@H](C[C@H](C)COC(=O)N2CCC(C)(OCC)CC2)C(=O)N[C@@H](CC(C)C)C(=O)N(C)[C@@H](C(C)C)C(=O)N1C [Ex 124]	0.056
C/C=C/C[C@@H](C)[C@@H](O)[C@H]1C(=O)N[C@@H]([C@@H](C)O)C(=O)N(C)[C@H](C)C(=O)N(C)[C@@H](CC(C)C)C(=O)N[C@@H](CC(C)C)C(=O)N(C)[C@@H](CC(C)C)C(=O)N[C@@H](C)C(=O)N[C@H](C)C(=O)N(C)[C@@H](C[C@H](C)COC(=O)N2CCSCC2)C(=O)N[C@@H](CC(C)C)C(=O)N(C)[C@@H](C(C)C)C(=O)N1C [Ex 130]	0.031
C/C=C/C[C@@H](C)[C@@H](O)[C@H]1C(=O)N[C@@H]([C@@H](C)O)C(=O)N(C)[C@H](C)C(=O)N(C)[C@@H](CC(C)C)C(=O)N[C@@H](CC(C)C)C(=O)N(C)[C@@H](CC(C)C)C(=O)N[C@@H](C)C(=O)N[C@H](C)C(=O)N(C)[C@@H](C[C@H](C)COC(=O)N(C)CC(F)(F)F)C(=O)N[C@@H](CC(C)C)C(=O)N(C)[C@@H](C(C)C)C(=O)N1C [Ex 145]	0.022
C/C=C/C[C@@H](C)[C@@H](O)[C@H]1C(=O)N[C@@H]([C@@H](C)O)C(=O)N(C)[C@H](COC)C(=O)N(C)[C@@H](CC(C)C)C(=O)N[C@@H](CC(C)C)C(=O)N(C)[C@@H](CC(C)C)C(=O)N[C@@H](C)C(=O)N[C@H](C)C(=O)N(C)[C@@H](C[C@H](C)COC(=O)N2CC[C@H](OC)C2)C(=O)N[C@@H](CC(C)C)C(=O)N(C)[C@@H](C(C)C)C(=O)N1C [Ex 151]	0.035
CCCC[C@@H](C)[C@@H](O)[C@H]1C(=O)N[C@@H]([C@@H](C)O)C(=O)N(C)CC(=O)N(C)[C@@H](CC(C)C)C(=O)N[C@@H](CC(C)C)C(=O)N(C)[C@@H](CC(C)C)C(=O)N[C@@H](C)C(=O)N[C@H](C)C(=O)N(C)[C@@H](C[C@H](C)COC(=O)N(C)c2ccccn2)C(=O)N[C@@H](CC(C)C)C(=O)N(C)[C@@H](C(C)C)C(=O)N1C [Ex 249] (cyclo([NMe(dihydroBmt)]T[Sar][NMeL]L[NMeL]A[dA][X1]L[NMeV]))	0.07
